Reference: PubChem BioAssay AID328 (DTP/NCI, 2004)
Several values for one entry are separate records, joined by “and”; a condition that tells them apart may be missing. Identical values can stand only once. Toxic doses and inconclusive results are not listed.

Test system: BDF1 mice, P388 leukemia ip, median survival T/C
Test: NCI In Vivo Anticancer Drug Screen. Data for tumor model P388 Leukemia (intraperitoneal) in B6D2F1 (BDF1) mice
Details: endpoint: median survival time, higher = longer survival
In short: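 Survival ratio, drug arm over vehicle arm, in mice with a transplanted tumour.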

[1] = dose: 100.0 mg/kg/injection, schedule: Q04DX003 (ip), vehicle: water
[2] = dose: 200.0 mg/kg/injection, schedule: Q04DX003 (ip), vehicle: water
[3] = dose: 50.0 mg/kg/injection, schedule: Q01DX009 (ip), vehicle: other
[4] = dose: 100.0 mg/kg/injection, schedule: Q04DX003 (ip), vehicle: saline with Tween-80
[5] = dose: 200.0 mg/kg/injection, schedule: Q04DX003 (ip), vehicle: saline with Tween-80
[6] = dose: 400.0 mg/kg/injection, schedule: Q04DX003 (ip), vehicle: saline with Tween-80
[7] = dose: 50.0 mg/kg/injection, schedule: Q04DX003 (ip), vehicle: Klucel (hydroxypropylcellulose) (HPC)
[8] = dose: 100.0 mg/kg/injection, schedule: Q01DX009 (ip), vehicle: Klucel (hydroxypropylcellulose) (HPC)
[9] = dose: 100.0 mg/kg/injection, schedule: Q04DX003 (ip), vehicle: Klucel (hydroxypropylcellulose) (HPC)
[10] = dose: 200.0 mg/kg/injection, schedule: Q01DX009 (ip), vehicle: Klucel (hydroxypropylcellulose) (HPC)
[11] = dose: 200.0 mg/kg/injection, schedule: Q04DX003 (ip), vehicle: Klucel (hydroxypropylcellulose) (HPC)
[12] = dose: 400.0 mg/kg/injection, schedule: Q01DX009 (ip), vehicle: Klucel (hydroxypropylcellulose) (HPC)
[13] = dose: 6.25 mg/kg/injection, schedule: Q01DX009 (ip), vehicle: saline
[14] = dose: 12.5 mg/kg/injection, schedule: Q01DX009 (ip), vehicle: saline
[15] = dose: 50.0 mg/kg/injection, schedule: Q01DX009 (ip), vehicle: saline with Tween-80
[16] = dose: 100.0 mg/kg/injection, schedule: Q01DX009 (ip), vehicle: saline with Tween-80
[17] = dose: 200.0 mg/kg/injection, schedule: Q01DX009 (ip), vehicle: saline with Tween-80
[18] = dose: 400.0 mg/kg/injection, schedule: Q04DX003 (ip), vehicle: Klucel (hydroxypropylcellulose) (HPC)
[19] = dose: 12.5 mg/kg/injection, schedule: Q01DX009 (ip), vehicle: saline with Tween-80
[20] = dose: 25.0 mg/kg/injection, schedule: Q01DX009 (ip), vehicle: saline with Tween-80

C=CCc1c(C)cc(C)c(C)c1O
T/C (dose: 100.0 mg/kg/injection, schedule: Q04DX003 (sc), vehicle: olive oil, sesame oil, peanut oil): 96 % of control | T/C (dose: 200.0 mg/kg/injection, schedule: Q04DX003 (sc), vehicle: olive oil, sesame oil, peanut oil): 92 % of control | T/C (dose: 400.0 mg/kg/injection, schedule: Q04DX003 (sc), vehicle: olive oil, sesame oil, peanut oil): 92 % of control

OCCSc1ncc2cnccn12
T/C [1]: 109 % of control | T/C [2]: 109 % of control | T/C (dose: 400.0 mg/kg/injection, schedule: Q04DX003 (ip), vehicle: water): 109 % of control

CS(=O)(=O)Nc1ccccc1O
T/C [3]: 96 % of control | T/C (dose: 100.0 mg/kg/injection, schedule: Q01DX009 (ip), vehicle: other): 104 % of control | T/C (dose: 200.0 mg/kg/injection, schedule: Q01DX009 (ip), vehicle: other): 97 % of control

COC1OC(COC(=O)c2ccccc2)C(OC(=O)c2ccccc2)C(OC(=O)c2ccccc2)C1OC(=O)c1ccccc1 (centres undefined)
T/C [4]: 91 % of control | T/C [5]: 91 % of control | T/C [6]: 91 % of control

O/N=C\CCC/C=N/O
T/C [7]: 100 % of control | T/C [8]: 91 % of control | T/C [9]: 100 % of control | T/C [10]: 95 % of control | T/C [11]: 100 % of control | T/C [12]: 95 % of control

Nc1cc(N)cc([N+](=O)[O-])c1
T/C [13]: 90 % of control | T/C (dose: 6.25 mg/kg/injection, schedule: Q04DX003 (ip), vehicle: saline): 100 % of control | T/C [14]: 86 % of control | T/C (dose: 12.5 mg/kg/injection, schedule: Q04DX003 (ip), vehicle: saline): 104 % of control | T/C (dose: 25.0 mg/kg/injection, schedule: Q04DX003 (ip), vehicle: saline): 100 % of control

COc1cccc(CCCC(=O)C(C)S(C)=O)c1 (centres undefined)
T/C [15]: 112 % of control | T/C [16]: 101 % of control | T/C [17]: 110 % of control

CNC(=S)NC1C2CC3CC(C2)CC1C3 (centres undefined)
T/C [15]: 94 % of control | T/C [16]: 94 % of control | T/C [17]: 94 % of control

Cc1cc(C)c(C)c(Br)c1
T/C [15]: 100 % of control | T/C [16]: 104 % of control

COC(=O)c1ccc(Cn2ccc(=O)n(Cc3ccc(C(=O)OC)cc3)c2=O)cc1
T/C [4]: 100 % of control | T/C [5]: 100 % of control | T/C [6]: 100 % of control

OCCC[P+](c1ccccc1)(c1ccccc1)c1ccccc1
T/C [7]: 113 % of control | T/C [9]: 109 % of control

CCO/C=C/C=C1C(=O)N(C)C(=O)N(C)C1=O
T/C [3]: 122 % of control

CC(Cc1ccccc1)CC(C(=O)O)C(=O)O (centres undefined)
T/C [4]: 100 % of control | T/C [5]: 99 % of control

CC(=O)Nc1ccccc1F
T/C [8]: 100 % of control | T/C [9]: 87 % of control | T/C [10]: 91 % of control | T/C [11]: 104 % of control | T/C [12]: 100 % of control

Cc1ccc2c3csc4ccccc4c-3nc2c1
T/C (dose: 1.56 mg/kg/injection, schedule: Q01DX009 (ip), vehicle: saline): 113 % of control | T/C (dose: 3.12 mg/kg/injection, schedule: Q01DX009 (ip), vehicle: saline): 113 % of control | T/C [13]: 113 % of control | T/C [14]: 100 % of control and 111 % of control | T/C (dose: 18.0 mg/kg/injection, schedule: Q01DX009 (ip), vehicle: saline): 118 % of control | T/C (dose: 25.0 mg/kg/injection, schedule: Q01DX009 (ip), vehicle: saline): 104 % of control

CCCN(CCC)c1ccc(/C=C/c2ccc3cc(OCC)ccc3n2)cc1
T/C [8]: 100 % of control | T/C [9]: 104 % of control | T/C [10]: 100 % of control | T/C [11]: 104 % of control | T/C [12]: 90 % of control | T/C [18]: 109 % of control

CC(=O)Nc1ccc2c([N+](=O)[O-])cccc2c1-c1c(NC(C)=O)ccc2c([N+](=O)[O-])cccc12
T/C [8]: 110 % of control | T/C [9]: 109 % of control | T/C [11]: 100 % of control | T/C [12]: 95 % of control | T/C [18]: 100 % of control

CN(C)CC(=O)c1ccc(O)c(O)c1
T/C (dose: 300.0 mg/kg/injection, schedule: Q01DX010 (ip), vehicle: saline): 150 % of control

NC(=O)OCCI
T/C (dose: 50.0 mg/kg/injection, schedule: Q04DX003 (ip), vehicle: other): 100 % of control | T/C (dose: 100.0 mg/kg/injection, schedule: Q04DX003 (ip), vehicle: other): 120 % of control | T/C (dose: 132.0 mg/kg/injection, schedule: Q04DX003 (ip), vehicle: Klucel (hydroxypropylcellulose) (HPC)): 150 % of control and 177 % of control | T/C [11]: 90 % of control | T/C (dose: 200.0 mg/kg/injection, schedule: Q04DX003 (ip), vehicle: other): 155 % of control

CCCC(=O)c1cc(O)c(O)cc1O
T/C [19]: 95 % of control | T/C [20]: 104 % of control | T/C [15]: 106 % of control

CNc1ccc([N+](=O)[O-])c2no[n+]([O-])c12
T/C (dose: 15.0 mg/kg/injection, schedule: Q01DX009 (ip), vehicle: saline with Tween-80): 90 % of control | T/C (dose: 30.0 mg/kg/injection, schedule: Q01DX009 (ip), vehicle: saline with Tween-80): 93 % of control | T/C (dose: 60.0 mg/kg/injection, schedule: Q01DX009 (ip), vehicle: saline with Tween-80): 102 % of control

COC(=O)CC1CCN(C(=O)OCc2ccccc2)C(Cc2c[nH]c3ccccc23)C1=O (centres undefined)
T/C (dose: 2.0 mg/kg/injection, schedule: Q01DX009 (ip), vehicle: saline): 105 % of control | T/C (dose: 3.0 mg/kg/injection, schedule: Q01DX009 (ip), vehicle: saline): 109 % of control | T/C (dose: 4.0 mg/kg/injection, schedule: Q01DX009 (ip), vehicle: saline): 114 % of control | T/C (dose: 8.0 mg/kg/injection, schedule: Q01DX009 (ip), vehicle: saline): 98 % of control | T/C (dose: 10.0 mg/kg/injection, schedule: Q01DX009 (ip), vehicle: saline): 109 % of control | T/C (dose: 16.0 mg/kg/injection, schedule: Q01DX009 (ip), vehicle: saline): 102 % of control | T/C (dose: 30.0 mg/kg/injection, schedule: Q01DX009 (ip), vehicle: saline): 104 % of control | T/C (dose: 32.0 mg/kg/injection, schedule: Q01DX009 (ip), vehicle: saline): 95 % of control | T/C (dose: 60.0 mg/kg/injection, schedule: Q01DX009 (ip), vehicle: saline): 109 % of control

CCOC(=O)C(OCc1ccccc1)(C(=O)O)C(C)C (centres undefined)
T/C [20]: 95 % of control | T/C [15]: 90 % of control | T/C [16]: 109 % of control | T/C [17]: 100 % of control | T/C (dose: 400.0 mg/kg/injection, schedule: Q01DX009 (ip), vehicle: saline with Tween-80): 104 % of control

CCN(CC)CCCC(C)NC(=O)c1cc(=O)[nH]c(=O)[nH]1 (centres undefined)
T/C (dose: 25.0 mg/kg/injection, schedule: Q01DX009 (ip), vehicle: water): 103 % of control | T/C (dose: 50.0 mg/kg/injection, schedule: Q01DX009 (ip), vehicle: water): 106 % of control | T/C (dose: 100.0 mg/kg/injection, schedule: Q01DX009 (ip), vehicle: water): 100 % of control | T/C [1]: 100 % of control | T/C [2]: 98 % of control

O=C1Nc2ccccc2C12Nc1cccnc1N2 (centres undefined)
T/C (dose: 50.0 mg/kg/injection, schedule: Q01DX001 (ip), vehicle: saline with Tween-80): 91 % of control | T/C (dose: 100.0 mg/kg/injection, schedule: Q01DX001 (ip), vehicle: saline with Tween-80): 87 % of control | T/C (dose: 200.0 mg/kg/injection, schedule: Q01DX001 (ip), vehicle: saline with Tween-80): 91 % of control

COc1ccc2c(c1OC(C)=O)-c1cc(OC(C)=O)cc3c1C(C2)N(C(=O)CBr)CC3 (centres undefined)
T/C (dose: 6.25 mg/kg/injection, schedule: Q01DX009 (ip), vehicle: saline with Tween-80): 105 % of control | T/C [19]: 106 % of control | T/C [20]: 116 % of control | T/C [15]: 88 % of control and 114 % of control

COc1ccc2c(c1OC)C(=O)NC2=O
T/C (dose: 50.0 mg/kg/injection, schedule: Q01DX008 (ip), vehicle: Klucel (hydroxypropylcellulose) (HPC)): 108 % of control | T/C [7]: 100 % of control | T/C (dose: 100.0 mg/kg/injection, schedule: Q01DX008 (ip), vehicle: Klucel (hydroxypropylcellulose) (HPC)): 88 % of control | T/C [9]: 100 % of control | T/C [11]: 90 % of control
